Experimental data from patent US20090111857A1, “1,2,4-TRIAZOLE ETHER DERIVATIVES AS MODULATORS OF MGLUR5” (AstraZeneca AB, priority 2007, published 2009).

Assays:
human mGluR5d = target: T1, human mGluR5d (Homo sapiens, UniProt P41594); assay: FLIPR assay: mobilization of intracellular calcium in cells expressing human mGluR5d; format: cell-based; details: antagonism of agonist-induced [Ca2+]i response, read-out: FLIPR hmGluR5d
T1 construct: expressed in transfected cells; The separate IP3 assay names GHEK cells
T1 sequence (P41594 21-942 isoform P41594-3 limits assumed): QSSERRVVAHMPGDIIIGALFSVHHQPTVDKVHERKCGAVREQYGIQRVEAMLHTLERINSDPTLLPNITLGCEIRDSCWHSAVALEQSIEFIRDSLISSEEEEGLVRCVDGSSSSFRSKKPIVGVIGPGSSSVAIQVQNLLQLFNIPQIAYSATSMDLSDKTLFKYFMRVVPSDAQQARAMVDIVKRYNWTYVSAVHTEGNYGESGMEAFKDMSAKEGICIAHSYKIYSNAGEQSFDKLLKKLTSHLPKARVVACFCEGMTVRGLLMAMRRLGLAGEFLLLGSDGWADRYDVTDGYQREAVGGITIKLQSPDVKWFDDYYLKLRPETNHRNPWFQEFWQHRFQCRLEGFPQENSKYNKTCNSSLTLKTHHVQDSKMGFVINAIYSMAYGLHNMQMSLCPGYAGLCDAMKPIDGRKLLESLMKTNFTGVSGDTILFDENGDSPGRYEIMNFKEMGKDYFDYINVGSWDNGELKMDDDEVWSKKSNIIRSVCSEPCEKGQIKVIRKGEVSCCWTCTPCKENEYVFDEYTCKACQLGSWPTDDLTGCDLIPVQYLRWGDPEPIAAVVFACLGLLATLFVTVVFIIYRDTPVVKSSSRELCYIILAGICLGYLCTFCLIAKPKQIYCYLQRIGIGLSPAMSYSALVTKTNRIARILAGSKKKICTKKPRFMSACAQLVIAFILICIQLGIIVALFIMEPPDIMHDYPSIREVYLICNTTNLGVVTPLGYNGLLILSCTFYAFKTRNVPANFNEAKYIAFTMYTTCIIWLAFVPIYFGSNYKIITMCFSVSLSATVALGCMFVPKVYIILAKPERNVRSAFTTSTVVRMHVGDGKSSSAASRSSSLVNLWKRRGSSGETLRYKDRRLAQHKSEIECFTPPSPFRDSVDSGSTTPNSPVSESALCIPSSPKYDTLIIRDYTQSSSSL
Description: Functional Assessment of mGluR5 Antagonism in Cell Lines Expressing mGluR5D
The properties of the compounds of the invention can be analyzed using standard assays for pharmacological activity. Examples of glutamate receptor assays are well known in the alt as described in for example Aramori et al., Neuron 8:757 (1992), Tanabe et al., Neuron 8:169 (1992), Miller et al., J. Neuroscience 15: 6103 (1995), Balazs, et al., J. Neurochemistry 69:151 (1997). The methodology described in these publications is incorporated herein by reference. Conveniently, the compounds of the invention can be studied by means of an assay (FLIPR) that measures the mobilization of intracellular calcium, [Ca^2+]i in cells expressing mGluR5 or another assay (IP3) that measures inositol phosphate turnover.
Cells expressing human mGluR5d as described in WO97/05252 cultured in a mixture of high glucose DMEM with Glutamax (31966-021)(500 mL), 10% dialyzed fetal bovine serum (Hyclone #SH30079.03)(56 mL), 200 μg/in L Hygromycin B (Invitrogen 45-0430, 50 mg/mL)(2.2 mL), 200 μg/mL Zeocin (Invitrogen #R250-01; 100 mg/mL)(1.1 mL) are seeded at a density of 100,000 cells per well on collagen coated clear bottom 96-well plates with black sides and cells were allowed to adhere over night before experiments. All assays are done in a buffer containing 146 mM NaCl, 5 mM KCl, 1 mM MgCl2, 1 mM CaCl2, 20 mM HEPES, 1 mg/mL glucose and 1 mg/mL BSA Fraction IV (pH 7.4). Cell cultures in the 96-well plates are loaded for 60 minutes in the above mentioned buffer containing 6 μM of the acetoxymethyl ester form of the fluorescent calcium indicator fluo-3 (Molecular Probes, Eugene, Oreg.) in 0.025% pluronic acid (a proprietary, non-ionic surfactant polyol—CAS Number 9003-11-6). Following the loading period the fluo-3 buffer is removed and replaced with fresh assay buffer. FLIPR experiments are done using a laser setting of 0.700 W and a 0.4 second CCD camera shutter speed with excitation and emission wavelengths of 488 nm and 562 nm, respectively. Each experiment is initiated with 160 μl of buffer present in each well of the cell plate. A 40 μl addition from the antagonist plate was followed by a 50 μL addition from the agonist plate. A 30 minutes, in dark at 25° C., interval separates the antagonist and agonist additions. The fluorescence signal is sampled 50 times at 1-second intervals followed by 3 samples at 5-second intervals immediately after each of the two additions. Responses are measured as the difference between the peak heights of the response to agonist less the background fluorescence within the sample period. IC50 determinations are made using a […] least squares fitting program.

[1] = Determination of brain to plasma ratio in rat; format: in vivo; details: brain and plasma, female Sprague Dawley rats, drug in brain over drug in plasma, read-out: Brain/Plasma Ratio of compound in Rat
Description: Brain to plasma ratios are estimated in female Sprague Dawley rats. The compound is dissolved in water or another appropriate vehicle. For determination of brain to plasma ratio the compound is administrated as a subcutaneous, or an intravenous bolus injection, or an intravenous infusion, or an oral administration. At a predetermined time point after the administration a blood sample is taken with cardiac puncture. The rat is terminated by cutting the heart open, and the brain is immediately retained. The blood samples are collected in heparinized tubes and centrifuged within 30 minutes, in order to separate the plasma from the blood cells. The plasma is transferred to 96-well plates and stored at −20° C. until analysis. The brains are divided in halt and each half is placed in a pre-tarred tube and stored at −20° C. until analysis. Prior to the analysis, the brain samples are thawed and 3 mL/g brain tissue of distilled water is added to the tubes. The brain samples are sonicated in an ice bath until the samples are homogenized. Both brain and plasma samples are precipitated with acetonitrile. After centrifugation, the supernatant is diluted with 0.2% formic acid. Analysis is performed on a short reversed-phase HPLC column with rapid gradient elution and MSMS detection using a triple quadrupole instrument with electrospray ionisation and Selected Reaction Monitoring (SRM) acquisition. Liquid-liquid extraction may be used as an alternative sample clean-up. The samples are extracted, by shaking, to an organic solvent after addition of a suitable buffer. An aliquot of the organic layer is transferred to a new vial and evaporated to dryness under a stream of nitrogen. After reconstitution of the residuals the samples are ready for injection onto the HPLC column.

IC50 (human mGluR5d) | Kp [1] | Structure (SMILES)
8 nM | 0.03 | C[C@@H](Oc1nnc(-c2ccc(C(N)=O)cc2)n1C)c1noc(-c2cccc(Cl)c2)n1 [Example 10.1, 4-(5-{(1R)-1-[5-(3-Chlorophenyl)-1,2,4-oxadiazol-3-yl]ethoxy}-4-methyl-4H-1,2,4-triazol-3-yl)benzamide]
6 nM | 0.01 | C[C@@H](Oc1nnc(-c2ccc(C(N)=O)cc2)n1C)c1nnn(-c2cccc(Cl)c2)n1 [Example 10.2, 4-(5-{(1R)-1-[2-(3-Chlorophenyl)-2H-tetrazol-5-yl]ethoxy}-4-methyl-4H-1,2,4-triazol-3-yl)benzamide]
5 nM | 0.075 | C[C@@H](Oc1nnc(-c2ccc(C(N)=O)cn2)n1C)c1nnn(-c2cccc(Cl)c2)n1 [Example 10.3, 6-(5-{(1R)-1-[2-(3-Chlorophenyl)-2H-tetrazol-5-yl]ethoxy}-4-methyl-4H-1,2,4-triazol-3-yl)nicotinamide]
6 nM | 0.09 | Cc1cccc(-n2nnc([C@@H](C)Oc3nnc(-c4ccc(C(N)=O)cn4)n3C)n2)c1 [Example 10.4, 6-(4-Methyl-5-{(1R)-1-[2-(3-methylphenyl)-2H-tetrazol-5-yl]ethoxy}-4H-1,2,4-triazol-3-yl)nicotinamide]
